Reference: patent EP1005446B1, “N-AROYLPHENYLALANINE DERIVATIVES” (priority 1997, dated 1999)

Target: T1, VLA-4 (α4β1 integrin) (Homo sapiens, UniProt P05556+P13612)
T1 construct: followed by 10 µl of Ramos cell-derived VLA-4; endogenous in cells; host or cells: Ramos cells (VLA-4 preparation derived from the cells)
Assay: VLA-4 / VCAM-1 Screening Assay (solid-phase, dual antibody ELISA)
Settings: inhibition of binding of Ramos cell-derived VLA-4 to immobilized recombinant human VCAM-1
Experimental: VLA-4 / VCAM-1 Screening Assay
VLA-4 antagonist activity, defined as ability to compete for binding to immobilized VCAM-1, was quantitated using a solid-phase, dual antibody ELISA. VLA-4 (α4β1 integrin) bound to VCAM-1 was detected by a complex of anti-integrin β1 antibody: HRP-conjugated anti-mouse IgG: chromogenic substrate (K-Blue). Initially, this entailed coating 96 well plates (Nunc Maxisorp) with recombinant human VCAM-1 (0.4 µg in 100 µl PBS), sealing each plate and then allowing the plates to stand at 4°C for ^~18 hr.

T1 sequence (P13612 34-1032): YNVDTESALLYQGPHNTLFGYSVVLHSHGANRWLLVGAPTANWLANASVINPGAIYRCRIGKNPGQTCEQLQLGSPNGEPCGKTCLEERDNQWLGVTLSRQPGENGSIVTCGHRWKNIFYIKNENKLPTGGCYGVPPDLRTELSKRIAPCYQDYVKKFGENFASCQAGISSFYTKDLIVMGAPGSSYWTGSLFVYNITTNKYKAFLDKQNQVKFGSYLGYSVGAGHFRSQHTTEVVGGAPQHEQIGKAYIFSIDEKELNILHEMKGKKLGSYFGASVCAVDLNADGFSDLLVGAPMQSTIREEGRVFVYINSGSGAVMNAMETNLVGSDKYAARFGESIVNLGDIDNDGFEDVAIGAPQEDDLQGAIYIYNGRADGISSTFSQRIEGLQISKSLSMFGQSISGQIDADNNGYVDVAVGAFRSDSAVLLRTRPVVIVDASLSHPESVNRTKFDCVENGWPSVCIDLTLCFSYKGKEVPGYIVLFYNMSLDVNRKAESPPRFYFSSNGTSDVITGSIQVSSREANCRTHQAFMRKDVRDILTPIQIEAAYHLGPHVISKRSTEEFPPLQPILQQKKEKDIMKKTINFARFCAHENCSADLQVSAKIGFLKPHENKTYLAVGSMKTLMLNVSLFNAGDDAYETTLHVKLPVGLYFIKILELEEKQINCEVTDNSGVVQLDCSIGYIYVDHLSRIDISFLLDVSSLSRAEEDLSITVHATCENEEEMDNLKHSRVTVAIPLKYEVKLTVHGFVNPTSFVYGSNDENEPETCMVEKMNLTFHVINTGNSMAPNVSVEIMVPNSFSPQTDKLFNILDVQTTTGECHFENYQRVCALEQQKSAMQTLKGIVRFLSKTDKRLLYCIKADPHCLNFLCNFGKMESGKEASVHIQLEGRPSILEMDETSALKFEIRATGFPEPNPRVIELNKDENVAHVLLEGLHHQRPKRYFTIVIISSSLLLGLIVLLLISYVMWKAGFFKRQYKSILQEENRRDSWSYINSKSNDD
T1 sequence (P05556 21-798): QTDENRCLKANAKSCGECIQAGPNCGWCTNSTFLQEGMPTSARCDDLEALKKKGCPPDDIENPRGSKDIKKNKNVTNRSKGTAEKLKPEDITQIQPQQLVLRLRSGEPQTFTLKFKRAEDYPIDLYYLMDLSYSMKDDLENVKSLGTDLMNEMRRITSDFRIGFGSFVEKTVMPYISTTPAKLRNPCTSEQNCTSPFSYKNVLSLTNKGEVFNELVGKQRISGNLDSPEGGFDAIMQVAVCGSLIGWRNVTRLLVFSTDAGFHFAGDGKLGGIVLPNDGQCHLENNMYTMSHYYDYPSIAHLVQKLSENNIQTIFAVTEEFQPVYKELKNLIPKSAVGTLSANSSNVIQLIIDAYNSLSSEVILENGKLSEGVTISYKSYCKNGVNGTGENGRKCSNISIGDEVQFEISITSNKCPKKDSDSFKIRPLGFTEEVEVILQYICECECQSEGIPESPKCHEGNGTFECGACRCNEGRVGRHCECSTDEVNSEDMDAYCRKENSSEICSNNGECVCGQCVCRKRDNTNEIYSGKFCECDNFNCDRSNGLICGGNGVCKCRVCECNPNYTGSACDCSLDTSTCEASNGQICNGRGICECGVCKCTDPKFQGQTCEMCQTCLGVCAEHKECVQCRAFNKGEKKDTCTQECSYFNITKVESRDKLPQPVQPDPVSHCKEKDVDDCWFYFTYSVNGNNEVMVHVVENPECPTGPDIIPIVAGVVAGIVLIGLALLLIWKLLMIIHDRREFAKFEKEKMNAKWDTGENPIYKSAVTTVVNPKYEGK

COCCC1(C(=O)N[C@@H](Cc2ccc(NC(=O)c3c(Cl)cccc3Cl)cc2)C(=O)O)CCCC1 [Example 59, 4-[[(2,6-dichlorophenyl)carbonyl]amino]-N-[[1-(2-methoxyethyl)cyclopentyl]carbonyl]-L-phenylalanine]
IC50: 0.26 nM
